Source: the NIST ThermoML archive (doi:10.1016/j.jct.2007.11.009)

Legend:
[1] = Liquid, Vibrating tube method
[2] = refractive index (Na D-line) (dimensionless); settings: 298.15 K; 101.33 kPa; Liquid; Standard Abbe refractometry

c1ccccc1 [benzene]
mass density [kg/m3], [1]
Settings | 298.15 K | 308.15 K | 318.15 K | 328.15 K
100 kPa | 873.5 | 862.9 | 852.3 | 841.5
2130 kPa | 875.1 | 864.7 | 854.2 | 843.6
4150 kPa | 876.7 | 866.4 | 856.1 | 845.6
6180 kPa | 878.4 | 868.2 | 857.9 | 847.5
8210 kPa | 879.9 | 869.9 | 859.7 | 849.5
10230 kPa | 881.5 | 871.6 | 861.5 | 851.3
11250 kPa | 882.3 | 872.4 | 862.4 | 852.3
12260 kPa | 883.1 | 873.2 | 863.2 | 853.2
14290 kPa | 884.6 | 874.8 | 865 | 855
16310 kPa | 886.1 | 876.4 | 866.6 | 856.8
18340 kPa | 887.6 | 878 | 868.3 | 858.6
20370 kPa | 889.1 | 879.5 | 869.9 | 860.3
22390 kPa | 890.5 | 881.1 | 871.6 | 862
24420 kPa | 892 | 882.6 | 873.2 | 863.7
26450 kPa | 893.4 | 884 | 874.7 | 865.3
28470 kPa | 894.7 | 885.5 | 876.2 | 866.9
29490 kPa | 895.4 | 886.2 | 877 | 867.8
30500 kPa | 896.1 | 886.9 | 877.8 | 868.6
32530 kPa | 897.5 | 888.4 | 879.2 | 870.1
34550 kPa | 898.8 | 889.7 | 880.7 | 871.7
36580 kPa | 900.1 | 891.1 | 882.1 | 873.1
38600 kPa | 901.4 | 892.5 | 883.6 | 874.7
39620 kPa | 902 | 893.2 | 884.3 | 875.4

Settings | refractive index
[2] | 1.4979

CCCCCCCC [octane]
mass density [kg/m3], [1]
Settings | 298.15 K | 308.15 K | 318.15 K | 328.15 K
100 kPa | 698.7 | 690.8 | 682.8 | 674.5
2130 kPa | 700.4 | 692.6 | 684.7 | 676.6
4150 kPa | 702.2 | 694.4 | 686.7 | 678.7
6180 kPa | 703.8 | 696.2 | 688.6 | 680.7
8210 kPa | 705.4 | 698 | 690.4 | 682.6
10230 kPa | 707 | 699.7 | 692.2 | 684.6
11250 kPa | 707.8 | 700.5 | 693.1 | 685.5
12260 kPa | 708.6 | 701.3 | 694 | 686.4
14290 kPa | 710.1 | 703 | 695.7 | 688.3
16310 kPa | 711.7 | 704.5 | 697.4 | 690.1
18340 kPa | 713.1 | 706.1 | 699.1 | 691.8
20370 kPa | 714.6 | 707.6 | 700.7 | 693.6
22390 kPa | 715.9 | 709.1 | 702.3 | 695.2
24420 kPa | 717.4 | 710.6 | 703.9 | 696.9
26450 kPa | 718.8 | 712 | 705.4 | 698.5
28470 kPa | 720.1 | 713.4 | 706.9 | 700
29490 kPa | 720.8 | 714.1 | 707.6 | 700.8
30500 kPa | 721.4 | 714.8 | 708.3 | 701.6
32530 kPa | 722.7 | 716.2 | 709.7 | 703
34550 kPa | 724 | 717.5 | 711.2 | 704.5
36580 kPa | 725.3 | 718.8 | 712.5 | 706
38600 kPa | 726.5 | 720.2 | 713.9 | 707.4
39620 kPa | 727.1 | 720.8 | 714.6 | 708.1

Settings | refractive index
[2] | 1.395
